Test results published in the supplement of paper PMC11061612.

Key:
[1] = test system: HSC-39 (Gastric Carcinoma); assay: combination Emax (second highest fraction inhibited in the dose matrix, 72 h); higher = more inhibition; extreme values may be limits of the assay
Summary of the method: (§1)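 Cell lines in DMEM/F12 or RPMI with 10% FBS were plated in 1536-well plates, held 24 hours at 37°C, 5% CO2, then given two-drug dose matrices for 72 hours (DMSO typically 0.2%). Viability was read by CellTiter-Glo 2.0 luminescence and scaled as inhibition from 0 (vehicle wells) to 1 (blank wells). Combination Emax is the second-highest inhibition in the matrix; Bliss excess is observed combination effect minus expected EA + EB − EA·EB, EA and EB being single-agent effects.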

[2] = test system: RKN (Other Solid Carcinomas); assay: as above
Summary of the method: as §1

[3] = test system: LXF-289 (Lung Adenocarcinoma); assay: as above
Summary of the method: as §1

[4] = test system: PSN1 (Pancreatic Carcinoma); assay: Bliss excess, mean over the matrix (fraction); higher = more synergy
Summary of the method: as §1

[5] = test system: LK-2 (Squamous Cell Lung Carcinoma); assay: as above
Summary of the method: as §1

[6] = test system: VAL (B-Cell Non-Hodgkin's Lymphoma); assay: as above
Summary of the method: as §1

[7] = test system: GP5d (Colorectal Carcinoma); assay: as above
Summary of the method: as §1

IST-MES1 (Mesothelioma) = assay: as above
Summary of the method: as §1

[8] = test system: NCI-H2342 (Lung Adenocarcinoma); assay: as above
Summary of the method: as §1

GB-1 (Glioblastoma) = assay: as above
Summary of the method: as §1

WM278 (Melanoma) = assay: as above
Summary of the method: as §1

[9] = test system: REH (B-Lymphoblastic Leukemia); assay: as above
Summary of the method: as §1

[10] = test system: SHP-77 (Small Cell Lung Carcinoma); assay: as above
Summary of the method: as §1

[11] = test system: OVMIU (Ovarian Carcinoma); assay: as above
Summary of the method: as §1

[12] = test system: OAW-42 (Ovarian Carcinoma); assay: as above
Summary of the method: as §1

[13] = test system: CAL-62 (Thyroid Gland Carcinoma); assay: as above
Summary of the method: as §1

[14] = test system: MFE-280 (Endometrial Carcinoma); assay: as above
Summary of the method: as §1

SF268 (Low Grade Glioma) = assay: as above
Summary of the method: as §1

[15] = test system: CAL-120 (Breast Carcinoma); assay: as above
Summary of the method: as §1

[16] = test system: SK-PN-DW (Other Solid Carcinomas); assay: as above
Summary of the method: as §1
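Throughout, for Bliss excess, mean over the matrix: after 72 h of two-drug dosing.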

SMILES | combination Emax [1] | combination Emax [2] | combination Emax [3] | Bliss excess [4] | Bliss excess [5] | Bliss excess [6] | Bliss excess [7] | Bliss excess (IST-MES1 (Mesothelioma)) | Bliss excess [8] | Bliss excess (GB-1 (Glioblastoma)) | Bliss excess (WM278 (Melanoma)) | Bliss excess [9] | Bliss excess [10] | Bliss excess [11] | Bliss excess [12] | Bliss excess [13] | Bliss excess [14] | Bliss excess (SF268 (Low Grade Glioma)) | Bliss excess [15] | Bliss excess [16]
CC1(C)CCC(CN2CCN(c3ccc(C(=O)NS(=O)(=O)c4ccc(NCC5CCOCC5)c([N+](=O)[O-])c4)c(Oc4cnc5[nH]ccc5c4)c3)CC2)=C(c2ccc(Cl)cc2)C1 [Venetoclax] + C1CN(CCC1(C(=O)N[C@@H](CCO)C2=CC=C(C=C2)Cl)N)C3=NC=NC4=C3C=CN4 [Capivasertib] (first compound max 1 µM, 7x7, partner max 3 µM) | 0.956 | 0.149 | 0.204 | -0.0707 | -0.0122 | 0.0301 | -0.0548 | -0.033 | -0.0359 | -0.0038 | -0.0699 | 0.0111 | -0.0797 | -0.112 | -0.0539 | -0.0409 | -0.0377 | -0.0095 | -0.0198 | -0.0892
CC1(C)CCC(CN2CCN(c3ccc(C(=O)NS(=O)(=O)c4ccc(NCC5CCOCC5)c([N+](=O)[O-])c4)c(Oc4cnc5[nH]ccc5c4)c3)CC2)=C(c2ccc(Cl)cc2)C1 [Venetoclax] + C=CCn1c(=O)c2cnc(Nc3ccc(N4CCN(C)CC4)cc3)nc2n1-c1cccc(C(C)(C)O)n1 [AZD1775] (first compound max 1 µM, partner max 1 µM) | 1 | 0.176 | 0.575 | -0.0553 | 0.012 | 0.0103 | -0.0561 | -0.0281 | -0.0184 | 0.0144 | -0.0413 | 0.0623 | 0.0141 | -0.013 | -0.0283 | 0.0452 | 0.0767 | -0.0218 | -0.0309 | 0.0457
CC1(C)CCC(CN2CCN(c3ccc(C(=O)NS(=O)(=O)c4ccc(NCC5CCOCC5)c([N+](=O)[O-])c4)c(Oc4cnc5[nH]ccc5c4)c3)CC2)=C(c2ccc(Cl)cc2)C1 [Venetoclax] + CCN(CCO)CCCOc1ccc2c(Nc3cc(CC(=O)Nc4cccc(F)c4)[nH]n3)ncnc2c1 [AZD2811] (first compound max 1 µM, 7x7, partner max 1 µM) | 0.981 | 0.176 | 0.389 | -0.0478 | 0.0197 | 0.0158 | -0.0235 | -0.0327 | -0.019 | -0.0501 | -0.0119 | 0.18 | 0.0432 | -0.0851 | -0.0059 | 0.0363 | 0.0557 | 0.0342 | -0.014 | -0.0703
CC1(C)CCC(CN2CCN(c3ccc(C(=O)NS(=O)(=O)c4ccc(NCC5CCOCC5)c([N+](=O)[O-])c4)c(Oc4cnc5[nH]ccc5c4)c3)CC2)=C(c2ccc(Cl)cc2)C1 [Venetoclax] + CN(C)CCCOc1ccc(-c2ccc3ncc4c(c3c2)n(C2CCOCC2)c(=O)n4C)cn1 [AZD0156] (first compound max 1 µM, 7x7, partner max 1 µM) | 0.926 | 0.107 | 0.245 | -0.0421 | 0.02 | 0.0308 | -0.0274 | -0.0382 | -0.0546 | -0.0206 | -0.0496 | 0.0037 | 0.0254 | -0.111 | -0.0402 | 0.0063 | 0.0338 | 0.0022 | -0.0307 | -0.0437
CC1(C)CCC(CN2CCN(c3ccc(C(=O)NS(=O)(=O)c4ccc(NCC5CCOCC5)c([N+](=O)[O-])c4)c(Oc4cnc5[nH]ccc5c4)c3)CC2)=C(c2ccc(Cl)cc2)C1 [Venetoclax] + COc1cc(Nc2ncc3c(n2)-c2ccc(Cl)cc2C(c2c(F)cccc2OC)=NC3)ccc1C(=O)O [Alisertib] (first compound max 1 µM, 7x7, partner max 10 µM) | 0.992 | 0.203 | 0.643 | -0.0219 | -0.035 | 0.0174 | 0.0453 | -0.0479 | -0.0792 | -0.03 | 0.0416 | 0.22 | 0.241 | -0.151 | -0.079 | -0.0092 | -0.0266 | 0.0151 | -0.0182 | -0.127
CC1(C)CCC(CN2CCN(c3ccc(C(=O)NS(=O)(=O)c4ccc(NCC5CCOCC5)c([N+](=O)[O-])c4)c(Oc4cnc5[nH]ccc5c4)c3)CC2)=C(c2ccc(Cl)cc2)C1 [Venetoclax] + C[C@@H]1COCCN1C2=NC(=NC(=C2)C3(CC3)[S@](=N)(=O)C)C4=C5C=CNC5=NC=C4 [AZD6738] (first compound max 1 µM, 7x7, partner max 10 µM) | 1 | 0.226 | 0.554 | -0.0848 | -0.0205 | 0.004 | -0.0657 | -0.0101 | -0.0209 | -0.0281 | -0.0712 | 0.0493 | -0.007 | -0.111 | -0.016 | 0.0023 | -0.0486 | -0.0723 | -0.0118 | -0.0045
CC1(C)CCC(CN2CCN(c3ccc(C(=O)NS(=O)(=O)c4ccc(NCC5CCOCC5)c([N+](=O)[O-])c4)c(Oc4cnc5[nH]ccc5c4)c3)CC2)=C(c2ccc(Cl)cc2)C1 [Venetoclax] + C[C@@H](Nc1cc(F)cc(F)c1)c1cc(C(=O)N(C)C)cc2c(=O)cc(N3CCOCC3)oc12 [AZD8186] (first compound max 1 µM, 7x7, partner max 3 µM) | 0.972 | 0.18 | 0.224 | -0.0683 | -0.0234 | 0.0557 | -0.0188 | -0.0423 | -0.0643 | -0.0076 | -0.0199 | 0.01 | 0.0205 | -0.129 | -0.047 | -0.0173 | -0.0525 | -0.0353 | -0.0194 | -0.0038
CC1(C)CCC(CN2CCN(c3ccc(C(=O)NS(=O)(=O)c4ccc(NCC5CCOCC5)c([N+](=O)[O-])c4)c(Oc4cnc5[nH]ccc5c4)c3)CC2)=C(c2ccc(Cl)cc2)C1 [Venetoclax] + Cc1cc2ncnn2cc1Nc1ncc2c(n1)n(C1CCOCC1)c(=O)n2C [AZD7648] (first compound max 1 µM, 7x7, partner max 10 µM) | 0.936 | 0.157 | 0.163 | -0.0534 | 0.0102 | 0.012 | -0.0119 | -0.0284 | -0.0473 | -0.0591 | -0.0476 | 0.0108 | -0.0088 | -0.109 | -0.0381 | -0.025 | -0.0773 | -0.0146 | -0.0338 | -0.054
CC1(C)CCC(CN2CCN(c3ccc(C(=O)NS(=O)(=O)c4ccc(NCC5CCOCC5)c([N+](=O)[O-])c4)c(Oc4cnc5[nH]ccc5c4)c3)CC2)=C(c2ccc(Cl)cc2)C1 [Venetoclax] + Cn1cnc2c(F)c(Nc3ccc(Br)cc3Cl)c(C(=O)NOCCO)cc21 [Selumetinib] (first compound max 1 µM, 7x7, partner max 3 µM) | 0.936 | 0.291 | 0.183 | -0.0262 | -0.0073 | -0.0069 | 0.01 | -0.0381 | -0.0628 | -0.0366 | -0.0319 | -0.0467 | 0.105 | -0.0641 | -0.0283 | -0.0114 | -0.0138 | -0.0355 | -0.0174 | -0.0308
